# According to patent publication US20250101062A1, “ANTIMICROBIAL PEPTIDES” (Board of Regents of the University of Nebraska, priority 2023, published 2025):
# Read-outs that look alike come from different tables or passages of the source. Where a SMILES comes first, the peptide text is derived from it.
# What was measured:
# S. aureus USA300 LAC = assay: microbe, parasite or virus in culture; format: cell-based, Staphylococcus aureus
# Method: (§1) The following resistant bacterial clinical strains were used in this study: S. aureus USA300 LAC, S. epidermidis 1457, E. coli E423-17, P. aeruginosa E411-17, K. pneumoniae E406-17, and A. baumannii B28-16. While the S. aureus USA300 strain is methicillin-resistant, most of the Gram-negative bacteria contain extended-spectrum beta-lactamase and are resistant to beta-lactam antibiotics. Peptide activity against bacteria was tested using an established lab protocol (Mishra, et al. (2017) Acta Biomater., 49:316-328). In brief, a peptide concentration gradient with twofold dilution was made in the 96-well polystyrene microplate at 10 μL per well. Bacteria were grown to the exponential phase (i.e., optical density at 600 nm≈0.5), diluted to ˜10^5 CFU/mL in different percentages of MHB, TSB, or LB, and partitioned into the 96-well microplate at 90 μL per well. […] They were diluted with autoclaved distilled water to obtain different percentages. The microplates were incubated at 37° C. overnight and read on a ChroMate™ 4300 microplate reader at 600 nm (GMI, Ramsey, MN). The peptide concentration in the wells without bacterial growth is the MIC. As is the convention, MIC values were represented as ranges.
# (§2) For pH effects on peptide activity, the pH of the medium was adjusted to a targeted pH for the autoclave and then remeasured at room temperature. For salt and serum effects on peptide activity, stock NaCl solution or human serum was added to the media.
# (§3) Peptide activity against bacteria were tested using the CLSI standard procedure with minor modifications (Clinical and Laboratory Standards Institute (2018) Performance standards for antimicrobial susceptibility testing, 9th ed.; Mishra, et al. (2019) Proc. Natl. Acad. Sci., 116(27):13517-13522). In brief, a peptide concentration gradient with twofold dilution was made in the 96-well polystyrene microplate at 10 μL per well. Bacteria were grown to the exponential phase (i.e., optical density at 600 nm≈0.5), diluted to ˜10^5 CFU/mL in MHB, and partitioned into the 96-well microplate at 90 μL per well. The microplates were incubated at 37° C. overnight and read on a ChroMate® 4300 Microplate Reader at 600 nm (GMI, Ramsey, MN). The peptide concentration in the wells without bacterial growth is the minimal inhibitory concentration (MIC). As the convention, MIC values were represented as ranges.
# (§4) For pH effects on peptide activity, the pH of the medium was adjusted to a targeted pH for autoclave and then remeasured at room temperature. For salt and serum effects on peptide activity, stock NaCl solution or human serum were added to the media.
# MRSA USA300 = assay: microbe, parasite or virus in culture; format: cell-based, Staphylococcus aureus
# Method: The experiment was conducted as described (Lakshmaiah et al. (2020) Proc. Natl. Acad. Sci., 117:19446-19454). Briefly, MRSA USA300 was grown to the exponential phase in MHB and diluted to OD600 0.001 (˜10^5 CFU/mL). Aliquots of 90 μL were added to a 96-well polystyrene microplate (Costar, Corning, NY) containing 10 μL of serially diluted LL-37mini, nafcillin, or daptomycin. After overnight incubation at 37° C., the plates were read at 600 nm using a ChroMate™ microplate reader (GMI, Ramsey, MN). Untreated bacterial culture and medium were included as untreated control and blank, respectively. The MIC is the lowest peptide concentration that inhibited the bacterial growth. The wells with sub-MIC levels of the peptides that retained growth approximately half the growth of the control wells were reinoculated in fresh MHB with sub-MIC concertation of peptides or antibiotics to attain exponential phase for MIC determination. In total, 17 passages of the bacterial cultures were conducted. A rapid increase in MIC is an indication of antibiotic resistance.
# [1] = Effect of MHB dilution on antibacterial activity of a panel of antibiotics; format: cell-based; settings: MHB from 100 to 12.5%
# Method: FIGS. 2A-2D show biofilm disruption activity of human LL-37 (FIGS. 2A and 2B) and 17BIPHE2 (FIGS. 2C and 2D) against the 24 hour preformed biofilms of S. aureus USA300 LAC in different MHB media: 12.5% MHB (FIGS. 2A and 2C) and 100% MHB (FIGS. 2B and 2D). FIGS. 2E-2H show the treatment outcome of LL-37 (FIGS. 2E and 2F) and 17BIPHE2 (FIGS. 2G and 2H) against the 24-hour preformed biofilms of E. coli E423-17 in different MHB media: 12.5% MHB (FIGS. 2E and 2G) and 100% MHB (FIGS. 2F and 2H). […] Growth curves of S. aureus USA 300 LAC (FIGS. 2J-2K) and P. aeruginosa 152 (FIGS. 2L-2M) in 12.5%, 25%, 50% and 100% MHB or TSB medium (curves from bottom to top).
# The effects of MHB dilution on the antimicrobial activity of a panel of antibiotics was also compared (FIG. 2I).
# E. coli E423-17 = format: cell-based, Escherichia coli; settings: E423-17
# Method: as §1, §2, §3, §4
# S. epidermidis 1457 = assay: microbe, parasite or virus in culture; format: cell-based, Staphylococcus epidermidis; settings: read-out: Antimicrobial activity (MIC) S. epidermidis 1457
# Method: as §1, §3
# A. baumannii B28-16 = format: cell-based, Acinetobacter baumannii; settings: B28-16
# Method: as §1, §3
# P. aeruginosa E411-17 = assay: microbe, parasite or virus in culture; format: cell-based, Pseudomonas aeruginosa; settings: E411-17
# Method: as §1, §2, §3, §4
# [2] = tested on: S. aureus USA300 LAC biofilms; assay: Disruption of preformed biofilms in vitro (XTT); format: cell-based, Staphylococcus aureus; settings: 24 h preformed biofilm
# Method: (§5) Effects of Peptides on Established Biofilms in Vitro. Bacteria (S. aureus USA300 LAC and E. coli E423-17) were grown in rich TSB media overnight. A second inoculation was made the next day to reach an exponential phase (OD600˜0.4). Microtiter plates (96 wells, Corning Costar Cat no. 3595), after aliquoting with 180 μL of the culture to each well, were incubated at 37° C. for 24 hours to form biofilms in rich TSB. Media were aspirated post incubation, and the attached biofilms were washed with 1×PBS to remove the planktonic bacteria. […] Biofilms treated with water served as the positive control, while media without bacterial inoculation served as the negative control. Live cells in the biofilms were quantitated using XTT as described above. Absorbance was read at 450 nm (only media with XTT containing wells served as the blank) using a ChroMate™ microtiter plate reader. Percentage biofilm growth for the peptide was plotted by assuming 100% biofilm growth in bacterial control alone. The data were represented as mean±SD; plots were generated using GraphPad prism 7, where * indicates p<0.05, **p<0.01, and ***P<0.001, and ****p<0.0001 (one-way analyses of variance).
# LL-37 is known to inhibit bacterial biofilms (Overhage, et al. (2008) Infect. Immun., 76:4176-4182). However, it was unable to disrupt preformed MRSA biofilms in rich media (Mishra, et al. (2016) ACS Med. Chem. Lett., 7:117-121). Next, it was determined whether the diluted MHB medium could be useful to detect biofilm-disrupting activity for LL-37 against MRSA. An established procedure (Mishra, et al. (2016) ACS Med. Chem. Lett., 7:117-121; Duplantier, et al. (2013) Front. Immunol., 4:143) was used wherein biofilms were formed and washed as usual to remove planktonic cells. The biofilms were then treated with peptides in 12.5% MHB for 24 hours. Finally, live cells were quantified with XTT (ATCC). FIG. 2 compares the levels of live cells of MRSA in the preformed biofilms after 24 hour treatment. […] Of note is a similar pattern for both peptides in 12.5% MHB treated at various concentrations.
# Bacteria (S. aureus USA300 LAC or P. aeruginosa E411-17) were grown up in TSB media overnight. A second inoculation was made the next day to reach an exponential phase (OD600˜0.4). Microtiter plates (96 wells, Corning Costar Cat No. 3595), after aliquoting with 180 μL of the culture to each well, were incubated at 37° C. for 24 hours to form biofilms in rich TSB. Media were aspirated post incubation and the attached biofilms were washed with 1×PBS to remove the planktonic bacteria. […] Biofilms treated with water served as the positive control while media without bacterial inoculation served as the negative control. Live cells in the biofilms were quantitated using the XTT as described above. Absorbance was read at 450 nm (only media with XTT containing wells served as the blank) using a ChroMate® microtiter plate reader. Percentage biofilm growth (the plot legend is antibiofilm activity) for the peptides was plotted by assuming 100% biofilm growth in bacterial control alone. The data were represented as mean±SD, plots were generated using GraphPad prism 7, where * indicates p<0.05, ** p<0.01, and ***P<0.001, and ****p<0.0001 (one-way analyses of variance).
# E. coli E423-17 biofilms = assay: Disruption of preformed biofilms in vitro (XTT); format: cell-based, Escherichia coli; settings: 24 h preformed biofilm
# Method: as §5
# [3] = Staphylococcus aureus, MRSA / USA300, MRSA in MHB, 20% serum, read-out: Antimicrobial activity (MIC)
structure (smiles),measurement,setting,value
CCOc1ccc2ccccc2c1C(=O)N[C@@H]1C(=O)N2[C@@H]1SC(C)(C)[C@@H]2C(=O)O [Nafcillin],MIC,S. aureus USA300 LAC; [3],16 to 32 µM
same,MIC,"S. aureus USA300 LAC; Staphylococcus aureus, MRSA / USA300, pH 6.3, MRSA in MHB, pH 6.3, read-out: Antimicrobial activity (MIC)",16 µM
same,MIC,"S. aureus USA300 LAC; Staphylococcus aureus, MRSA / USA300, pH 7.2, MRSA in MHB, pH 7.2, read-out: Antimicrobial activity (MIC)",4 to 8 µM
same,increase of MIC,MRSA USA300; 17 passages at sub-MIC,32 fold
same,MIC,"MRSA USA300; Staphylococcus aureus, read-out: MIC after multiple passages",128 µM
same,change in MIC with dilution of MHB,[1],small changes in MIC values
CC(=O)NC[C@H]1CN(c2ccc(N3CCOCC3)c(F)c2)C(=O)O1 [Linezolid],MIC,S. aureus USA300 LAC; [3],8 to 16 µM
same,MIC,"S. aureus USA300 LAC; Staphylococcus aureus, MRSA / USA300, MRSA in MHB, NaCl (150 mM), read-out: Antimicrobial activity (MIC)",8 µM
same,change in MIC with dilution of MHB,[1],essentially no changes
C/C(=C\C(=O)OCCCCCCCCC(=O)O)C[C@@H]1OC[C@H](C[C@@H]2O[C@H]2[C@@H](C)[C@H](C)O)[C@@H](O)[C@H]1O [Muporicin],change of MIC / activity,"S. aureus USA300 LAC; MRSA in MHB, 10% human serum",fourfold
same,Antimicrobial activity (MIC),"S. aureus USA300 LAC; MRSA in MHB, 10% serum",4 µM
same,Antimicrobial activity (MIC),"S. aureus USA300 LAC; MRSA in MHB, 20% serum",4 µM
same,Antimicrobial activity (MIC),"S. aureus USA300 LAC; MRSA in MHB, NaCl (150 mM)",1 µM
same,Antimicrobial activity (MIC),"S. aureus USA300 LAC; MRSA in MHB, pH 6.3",0.5 µM
same,Antimicrobial activity (MIC),"S. aureus USA300 LAC; MRSA in MHB, pH 7.2",1 µM
same,change in MIC with dilution of MHB,[1],essentially no changes
CC(C)C[C@H](NC(=O)[C@H](CC(N)=O)NC(=O)[C@H](CCCNC(=N)N)NC(=O)[C@@H](CC(C)C)NC(=O)[C@H](Cc1ccc(-c2ccccc2)cc1)NC(=O)[C@H](CC(=O)O)NC(=O)[C@H](CCCCN)NC(=O)[C@@H](CC(C)C)NC(=O)[C@H](CCCNC(=N)N)NC(=O)[C@H](CCC(N)=O)NC(=O)[C@@H](NC(=O)[C@@H](CC(C)C)NC(=O)[C@H](CCCNC(=N)N)NC(=O)[C@H](CCCCN)NC(=O)[C@H](Cc1ccc(-c2ccccc2)cc1)NC(=O)CN)C(C)C)C(=O)N[C@H](C(N)=O)C(C)C [17BIPHE2] (HELM PEPTIDE1{G.[O=C([C@H](Cc1ccc(-c2ccccc2)cc1)N[*:1])[*:2]].K.R.[dL].V.Q.R.[dL].K.D.[O=C([C@H](Cc1ccc(-c2ccccc2)cc1)N[*:1])[*:2]].[dL].R.N.L.V.[am]}$$$$V2.0; N-terminus and C-terminus assumed),MIC,S. aureus USA300 LAC; USA300,2 to 4 µM
same,MIC,"S. aureus USA300 LAC; USA300, read-out: Antimicrobial activity (MIC) S. aureus USA300",4 µM
same,Antimicrobial activity (MIC),E. coli E423-17,<2 µM
same,Antimicrobial activity (MIC) E. coli E423-17,E. coli E423-17,4 µM
same,MIC,S. epidermidis 1457,8 µM
same,Antimicrobial activity (MIC) A. baumannii B28-16,A. baumannii B28-16,4 µM
same,Antimicrobial activity (MIC) P. aeruginosa E411-17,P. aeruginosa E411-17,4 µM
same,peptide concentration showing biofilm disruption,[2]; 12.5% MHB,16 µM
same,peptide concentration at which it started to work on biofilms,[2]; 100% MHB,8 µM
same,live bacteria remained in the biofilms,"[2]; 100% MHB, treated at 16 μM for 24 h",~30%
same,effect on biofilms,E. coli E423-17 biofilms; 12.5% MHB,dose-dependent antibiofilm effect
same,effect on biofilms,E. coli E423-17 biofilms; 100% MHB,subtle effect
